Assay [1] deals with K. pneumoniae JIE2713. Description: Checkerboard microdilution synergy test. The class given is cell-based, Klebsiella pneumoniae. The settings on record: for MIC: Klebsiella pneumoniae, read-out: MIC of DrugB (alone, checkerboard); for FICDrugB / MF of antibiotic (modulation factor) / MIC of DrugB + TM8: in combination with TM8. As for the experimental part: (§1) Then, 10 µl of bacteria (5 × 10^6 CFU ml^−1) or C. auris (2.5 × 10^4 CFU ml^−1) were added to each well, except for the sterility control well. […] The sterility control wells contained only MHB (or RPMI in case of C. auris), and the growth control contained 110 µl of microbial inoculum with no antimicrobials. Subsequently, the plates were incubated for 18- 24 hours at 36 ± 1 °C.
(§2) The FIC for each combination interaction was calculated as follows:
(§3) Then, the summation of FIC (ƩFIC) was calculated for each antimicrobial combination as follows: ƩFIC = FICA + FICB. […] All antimicrobial synergy experiments were repeated in at least two independent runs.
(Broth dilution looks for growth in wells or tubes with falling amounts of substance.)

For assay [2], the system named is E. coli 0010. The conditions noted are these: E. coli 0010; CAMHB, 37°C, 16–20 h. The protocol:
(§4) Briefly, bacteria were suspended in cation-adjusted Mueller–Hinton broth (CAMHB; Oxoid, UK) for antibiotics, or MHB (Oxoid, UK) for peptidomimetics to obtain 5 × 10^5 colony forming unit (CFU) ml^−1. […] Positive controls contained only microbes, and blanks contained only media. Microbial suspensions (100 µl) were added to wells, plates wrapped, and incubated at 37°C, 120 rpm for 16–20 h. After incubation, suspensions were removed, log10 diluted, and plated on Trypticase Soya Agar with phosphatidylcholine and Tween 80 to determine minimum bactericidal or fungicidal concentration (MBC or MFC). […] Geometric mean MIC of the peptoids were calculated to evaluate the broad overview of antimicrobial activity across the pathogens.

Assay [3] concerns E. coli 0011. The conditions noted are these: E. coli 0011; CAMHB, 37°C, 16–20 h. As for the experimental part: as §4
For assay [4], the system named is E. coli 0015. The conditions noted are these: E. coli 0015; CAMHB, 37°C, 16–20 h. As for the experimental part: as §4
In assay [5] the test system is E. coli 005. The conditions noted are these: E. coli 005; CAMHB, 37°C, 16–20 h. As for the experimental part:
as §4

For assay [6], the system named is En. cloacae 001. The conditions noted are these: En. cloacae 001; CAMHB, 37°C, 16–20 h. As for the experimental part:
as §4

The subject of assay [7] is En. cloacae 003. The conditions noted are these: En. cloacae 003; CAMHB, 37°C, 16–20 h. As for the experimental part:
as §4

Assay [8] deals with En. cloacae 005. The conditions noted are these: En. cloacae 005; CAMHB, 37°C, 16–20 h. The protocol:
as §4

The test system of assay [9] is K. pneumoniae JIE2709. The settings on record: K. pneumoniae JIE2709; CAMHB, 37°C, 16–20 h. The protocol:
as §4

The subject of assay [10] is K. pneumoniae JIE2713. The conditions noted are these: K. pneumoniae JIE2713; CAMHB, 37°C, 16–20 h. The protocol: as §4
Assay [11] has as its system K. pneumoniae JIE4212. The conditions noted are these: K. pneumoniae JIE4212; CAMHB, 37°C, 16–20 h. As for the experimental part:
as §4

The subject of assay [12] is P. aeruginosa 216. The conditions noted are these: P. aeruginosa 216; CAMHB, 37°C, 16–20 h. As for the experimental part:
as §4

For assay [13], the system named is P. aeruginosa 33. The settings on record: P. aeruginosa 33; CAMHB, 37°C, 16–20 h. As for the experimental part:
as §4

Assay [14] has as its system P. aeruginosa AR-1270. The settings on record: P. aeruginosa AR-1270; CAMHB, 37°C, 16–20 h. As for the experimental part: as §4
Assay [15] relates to A. baumannii 005. The conditions noted are these: A. baumannii 005; CAMHB, 37°C, 16–20 h. The protocol:
as §4

Assay [16] concerns A. baumannii 006. The conditions noted are these: A. baumannii 006; CAMHB, 37°C, 16–20 h. The protocol: as §4
Assay [17] relates to A. baumannii 007. The conditions noted are these: A. baumannii 007; CAMHB, 37°C, 16–20 h. The protocol: as §4
The subject of assay [18] is A. baumannii 008. The settings on record: A. baumannii 008; CAMHB, 37°C, 16–20 h. The protocol:
as §4

For assay [19], the system named is A. baumannii ATCC 19 606. The settings on record: A. baumannii ATCC 19 606; CAMHB, 37°C, 16–20 h. The protocol:
as §4

Assay [20] has as its system K. pneumoniae JIE2709. In words: Checkerboard microdilution synergy test. The class given is cell-based, Klebsiella pneumoniae. As for the experimental part:
as §1, §2, §3

As usually defined, the MIC is the least concentration at which growth counts as inhibited.

With `C[C@H]1[C@H](NC(=O)/C(=N\OC(C)(C)C(=O)O)c2csc(N)n2)C(=O)N1S(=O)(=O)O` [Azt, aztreonam, reference compound], the MIC in assay [1] came to 128 µg/mL. The FICDrugB in [1] is 0.5. For the same molecule, the “MF of antibiotic (modulation factor)” value in assay [1] was 2. In addition, the “MIC of DrugB + TM8” value in [1] was 64 µg/mL. The MIC of antibiotics in assay [2] worked out at 2 µg/mL; in [3], 4 µg/mL; in [4] it was 0.5 µg/mL; in assay [5] it was 0.5 µg/mL; in assay [6], 4 µg/mL; in assay [7], 4 µg/mL. In addition, the MIC of antibiotics was 16 µg/mL in [8]; above 128 µg/mL in [9]; 128 µg/mL in assay [10]; above 128 µg/mL in assay [11]; 4 µg/mL in assay [12]; 128 µg/mL in assay [13]. For the same molecule, the MIC of antibiotics in assay [14] was above 128 µg/mL.

On to `CC(C)(O/N=C(\C(=O)N[C@@H]1C(=O)N2C(C(=O)[O-])=C(C[n+]3ccccc3)CS[C@H]12)c1csc(N)n1)C(=O)O` [Cefaz, ceftazidime, reference compound], for which the MIC of antibiotics in assay [15] was found to be 512 µg/mL; in [16], 512 µg/mL; in assay [17], 512 µg/mL; in assay [18] it was 512 µg/mL; in assay [19], 8 µg/mL; in assay [2], 2 µg/mL. The MIC of antibiotics in assay [3] is 4 µg/mL; in assay [4], 0.5 µg/mL; in [5], 0.25 µg/mL; in assay [6], 4 µg/mL; in assay [7], 4 µg/mL; in assay [8], 128 µg/mL. For the same molecule, the MIC of antibiotics was 32 µg/mL in assay [9]; above 512 µg/mL in [10]; above 512 µg/mL in [11]; 2 µg/mL in assay [12]; 32 µg/mL in assay [13]; above 512 µg/mL in assay [14].

Take `CO/N=C(\C(=O)N[C@@H]1C(=O)N2C(C(=O)O)=C(COC(C)=O)CS[C@H]12)c1csc(N)n1` [Cefot, cefotaxime, reference compound]: the MIC stood at 32 µg/mL in assay [20] (Klebsiella pneumoniae, read-out: MIC of DrugB (alone, checkerboard)) and 1020 µg/mL in [1]. For the same molecule, the FICDrugB in [20] (in combination with TM8) and in assay [1] was 0.5 each time. The “MF of antibiotic (modulation factor)” value in assay [20] (in combination with TM8) and in assay [1] was 2 in each case. Also, the “MIC of DrugB + TM8” value in [20] (in combination with TM8) came out at 16 µg/mL; in assay [1], 512 µg/mL. For the same molecule, the MIC of antibiotics in [15] was found to be 512 µg/mL; in assay [16] it was 512 µg/mL; in assay [17] it was 512 µg/mL; in [18] it was 512 µg/mL; in assay [19] it was 8 µg/mL; in assay [2] it was 2 µg/mL. The MIC of antibiotics in assay [3] is 4 µg/mL; in assay [4], 0.5 µg/mL; in assay [5] it was 0.25 µg/mL; in assay [6] it was 4 µg/mL; in [7] it was 8 µg/mL; in assay [8] it was 128 µg/mL. The MIC of antibiotics in assay [9] is 32 µg/mL; in assay [10] it was above 512 µg/mL; in assay [11] it was above 512 µg/mL.

With `O=C(O)c1cn(C2CC2)c2cc(N3CCNCC3)c(F)cc2c1=O` [Cip, ciprofloxacin], in assay [20] (in combination with TM8), the FICDrugB was found to be 0.5 and the “MF of antibiotic (modulation factor)” value is 2. In addition, in assay [1], the FICDrugB is on record as 0.023, the “MF of antibiotic (modulation factor)” value is listed as 4 and the “MIC of DrugB + TM8” value was 32 µg/mL.

Regarding `CNC(C)C1CCC(N)C(OC2C(N)CC(N)C(OC3OCC(C)(O)C(NC)C3O)C2O)O1` (stereo not drawn) [Gen, gentamicin, reference compound], in assay [1], the MIC was found to be 1020 µg/mL. Also, the FICDrugB in [1] worked out at 0.5. The “MF of antibiotic (modulation factor)” value in [1] came to 2. Besides, in [1], the “MIC of DrugB + TM8” value amounted to 512 µg/mL. The MIC of antibiotics is above 128 µg/mL in assay [15]; above 128 µg/mL in [16]; above 128 µg/mL in [17]; above 128 µg/mL in assay [18]; 4 µg/mL in assay [19]; 0.25 µg/mL in assay [2]. For the same molecule, the MIC of antibiotics in [3] worked out at 0.5 µg/mL; in [4], 0.5 µg/mL; in assay [5], 0.25 µg/mL; in assay [6], 4 µg/mL; in [7] it was 0.5 µg/mL; in [8] it was 0.25 µg/mL. The MIC of antibiotics in assay [9] is 0.5 µg/mL; in [10], above 128 µg/mL; in assay [11] it was 128 µg/mL; in [13], above 128 µg/mL; in assay [14], above 128 µg/mL.

As for colistin sulfate [reference compound], the MIC of antibiotics is 0.25 µg/mL in assay [15]; 0.25 µg/mL in [16]; 1 µg/mL in [17]; 1 µg/mL in [18]; 2 µg/mL in [19]; 2 µg/mL in [2]. Moreover, the MIC of antibiotics in [3] worked out at 2 µg/mL; in [4], 0.25 µg/mL; in assay [5] it was 0.25 µg/mL; in assay [6], 2 µg/mL; in [7] it was 1 µg/mL; in assay [8], 2 µg/mL. In addition, the MIC of antibiotics in assay [9] was 1 µg/mL; in assay [10], 1 µg/mL; in [11] it was 1 µg/mL; in [12], 16 µg/mL; in assay [13] it was 1 µg/mL; in assay [14], 1 µg/mL.

Consider polymyxin B [PmB, reference compound], for which the MIC of antibiotics in assay [15] was found to be 0.25 µg/mL; in [16], 0.25 µg/mL; in assay [17], 1 µg/mL; in assay [18], 1 µg/mL; in assay [19] it was 2 µg/mL; in assay [2], 2 µg/mL. For the same molecule, the MIC of antibiotics amounted to 2 µg/mL in assay [3]; 0.25 µg/mL in assay [4]; 0.25 µg/mL in [5]; 2 µg/mL in assay [6]; 1 µg/mL in assay [7]; 2 µg/mL in [8]. The MIC of antibiotics in assay [9] worked out at 1 µg/mL; in [10] it was 1 µg/mL; in [11], 1 µg/mL; in assay [12] it was 16 µg/mL; in assay [13], 2 µg/mL; in assay [14], 2 µg/mL.

These data come from PMC11879280, “Antimicrobial activity of peptoids against Metallo-β-lactamase-producing Klebsiella pneumoniae, Acinetobacter baumannii, Pseudomonas aeruginosa, and other WHO priority pathogens, including Candida auris” (Journal of Applied Microbiology, 2025).
